According to ChEMBL document CHEMBL1151449, “In vitro activity of DC-159a, a new broad-spectrum fluoroquinolone, compared with that of other agents against drug-susceptible and -resistant pneumococci” (2008):

Key:
Format in all cases: functional
Streptococcus pneumoniae [1] = experiment: Antibacterial activity against penicillin-, macrolide- and quinolone-susceptible Streptococcus pneumoniae HMC 63 by broth microdilution method
Streptococcus pneumoniae [2] = experiment: Antibacterial activity against penicillin-resistant and quinolone-susceptible Streptococcus pneumoniae HMC 3583 expressing mefA and harboring S81F mutation in quinolone-resistant determining regions of GyrA gene and I460V, D435N mutation in QRDR of ParE gene after 46 passages with gatifloxacin measured after 10 daily antibiotic-free subculturing by multi-step resistance selection technique
Streptococcus pneumoniae [3] = experiment: Antibacterial activity against penicillin-resistant and quinolone-susceptible Streptococcus pneumoniae HMC 3583 expressing mefA and harboring S81F mutation in quinolone-resistant determining regions of GyrA gene, D83N mutation in QRDR of ParC gene and I460V mutation in QRDR of ParE gene after 49 passages with DC-159a measured after 10 daily antibiotic-free subculturing by multi-step resistance selection technique
Streptococcus pneumoniae [4] = experiment: Antibacterial activity against penicillin-susceptible Streptococcus pneumoniae ATCC 49619 by agar dilution method
Streptococcus pneumoniae [5] = experiment: Antibacterial activity against penicillin-resistant and quinolone-susceptible Streptococcus pneumoniae HMC 228 expressing ermB by broth microdilution method
Streptococcus pneumoniae [6] = experiment: Antibacterial activity against macrolide-, quinolone-susceptible and penicillin-intermediate Streptococcus pneumoniae HMC 99 after 50 passages by broth microdilution method
Streptococcus pneumoniae [7] = experiment: Antibacterial activity against quinolone-susceptible and penicillin-intermediate Streptococcus pneumoniae HMC 441 expressing ermB by broth microdilution method
Streptococcus pneumoniae [8] = experiment: Antibacterial activity against macrolide-, quinolone-susceptible and penicillin-intermediate Streptococcus pneumoniae HMC 100 by broth microdilution method
Streptococcus pneumoniae [9] = experiment: Antibacterial activity against penicillin-, macrolide-susceptible and quinolone-resistant Streptococcus pneumoniae HMC 1074 harboring S81F, E85K mutation in quinolone-resistant determining regions of GyrA gene, S79F mutation in QRDR of ParC gene and I460V mutation in QRDR of ParE gene after 27 passages with gemifloxacin measured after 10 daily antibiotic-free subculturing by multi-step resistance selection technique
Streptococcus pneumoniae [10] = experiment: Antibacterial activity against penicillin- and quinolone-susceptible Streptococcus pneumoniae HMC 5055 expressing mefA after 50 passages by broth microdilution method
Streptococcus pneumoniae [11] = experiment: Antibacterial activity against macrolide-, quinolone-susceptible and penicillin-intermediate Streptococcus pneumoniae HMC 99 harboring S81Y and S79Y mutation in quinolone-resistant determining regions of GyrA and ParC genes respectively after 41 passages with moxifloxacin measured after 10 daily antibiotic-free subculturing by multi-step resistance selection technique
Streptococcus pneumoniae [12] = experiment: Antibacterial activity against macrolide-, quinolone-susceptible and penicillin-intermediate Streptococcus pneumoniae HMC 100 harboring S79Y mutation in quinolone-resistant determining regions of ParC gene after 34 passages with gemifloxacin measured after 10 daily antibiotic-free subculturing by multi-step resistance selection technique
Streptococcus pneumoniae [13] = experiment: Antibacterial activity against penicillin-, quinolone-resistant Streptococcus pneumoniae HMC 1541 harboring mutation in L4 protein by broth microdilution method
Streptococcus pneumoniae [14] = experiment: Antibacterial activity against penicillin-, macrolide-susceptible and quinolone-resistant Streptococcus pneumoniae HMC 1074 harboring S81F mutation in quinolone-resistant determining regions of GyrA gene, S79F mutation in QRDR of ParC gene and I460V mutation in QRDR of ParE gene after 50 passages by broth microdilution method
Streptococcus pneumoniae [15] = experiment: Antibacterial activity against quinolone-resistant Streptococcus pneumoniae […] by agar dilution method
Streptococcus pneumoniae [16] = experiment: Antibacterial activity against macrolide-, quinolone-susceptible and penicillin-intermediate Streptococcus pneumoniae HMC 100 after 50 passages by broth microdilution method
Streptococcus pneumoniae [17] = experiment: Antibacterial activity against Streptococcus pneumoniae HMC 1068 harboring E85K mutation in quinolone-resistant determining regions of GyrA gene, S79Y, K137N mutation in QRDR of ParC gene and I460V mutation in QRDR of ParE gene showing efflux to ciprofloxacin, levofloxacin by agar dilution method
Streptococcus pneumoniae [18] = experiment: Antibacterial activity against Streptococcus pneumoniae HMC 4026 harboring S81Y mutation in quinolone-resistant determining regions of GyrA gene, S79F, K137N mutation in QRDR of ParC gene and I460V mutation in QRDR of ParE gene by agar dilution method
Streptococcus pneumoniae [19] = experiment: Antibacterial activity against Streptococcus pneumoniae HMC 3041 after 50 passages by broth microdilution method
Streptococcus pneumoniae [20] = experiment: Antibacterial activity against Streptococcus pneumoniae HMC 1062 harboring S81F mutation in quinolone-resistant determining regions of GyrA gene, S79F mutation in QRDR of ParC gene and I460V mutation in QRDR of ParE gene by agar dilution method
Streptococcus pneumoniae [21] = experiment: Antibacterial activity against Streptococcus pneumoniae HMC 1541 harboring S81Y mutation in quinolone-resistant determining regions of GyrA gene, S79F, K137N mutation in QRDR of ParC gene and I460V mutation in QRDR of ParE gene by agar dilution method
Streptococcus pneumoniae [22] = experiment: Antibacterial activity against Streptococcus pneumoniae HMC 1072 harboring S81F mutation in quinolone-resistant determining regions of GyrA gene, S79Y mutation in QRDR of ParC gene and I460V mutation in QRDR of ParE gene by agar dilution method
Streptococcus pneumoniae [23] = experiment: Antibacterial activity against Streptococcus pneumoniae HMC 5041 harboring S81F and S79F mutation in quinolone-resistant determining regions of GyrA and ParC genes respectively by agar dilution method
Streptococcus pneumoniae [24] = experiment: Antibacterial activity against Streptococcus pneumoniae HMC 1074 harboring S81F mutation in quinolone-resistant determining regions of GyrA gene, S79F mutation in QRDR of ParC gene and I460V mutation in QRDR of ParE gene by agar dilution method
Streptococcus pneumoniae [25] = experiment: Antibacterial activity against Streptococcus pneumoniae HMC 1071 harboring S81F mutation in quinolone-resistant determining regions of GyrA gene and S79F, K137N mutation in QRDR of ParC gene by agar dilution method
Streptococcus pneumoniae [26] = experiment: Antibacterial activity against Streptococcus pneumoniae HMC 1070 harboring S81F mutation in quinolone-resistant determining regions of GyrA gene, D83N mutation in QRDR of ParC gene and I460V mutation in QRDR of ParE gene by agar dilution method
Streptococcus pneumoniae [27] = experiment: Antibacterial activity against Streptococcus pneumoniae HMC 1147 harboring S81F mutation in quinolone-resistant determining regions of GyrA gene, S79F mutation in QRDR of ParC gene and I460V mutation in QRDR of ParE gene showing efflux to gemifloxacin by agar dilution method
Streptococcus pneumoniae [28] = experiment: Antibacterial activity against Streptococcus pneumoniae HMC 1055 harboring S81F mutation in quinolone-resistant determining regions of GyrA gene, S79F, K137N mutation in QRDR of ParC gene and I460V mutation in QRDR of ParE gene by agar dilution method
Streptococcus pneumoniae [29] = experiment: Antibacterial activity against Streptococcus pneumoniae HMC 1078 harboring S81F mutation in quinolone-resistant determining regions of GyrA gene, S79F mutation in QRDR of ParC gene and I460V mutation in QRDR of ParE gene by agar dilution method

CC[C@H]1OC(=O)[C@H](C)[C@@H](O[C@H]2C[C@@](C)(OC)[C@@H](O)[C@H](C)O2)[C@H](C)[C@@H](O[C@@H]2O[C@H](C)C[C@H](N(C)C)[C@H]2O)[C@](C)(O)C[C@@H](C)CN(C)[C@H](C)[C@@H](O)[C@]1(C)O [AZITHROMYCIN]
0.016 µg/mL: MIC (Streptococcus pneumoniae [1]) | MIC (Streptococcus pneumoniae [9]) | MIC (Streptococcus pneumoniae [11])
> 64 µg/mL: MIC90 (Streptococcus pneumoniae [4]) | MIC (Streptococcus pneumoniae [5]) | MIC (Streptococcus pneumoniae [7]) | MIC (Streptococcus pneumoniae [13])
8 µg/mL: MIC (Streptococcus pneumoniae [10])
0.06 µg/mL: MIC (Streptococcus pneumoniae [6]) | MIC (Streptococcus pneumoniae [12]) | MIC50 (Streptococcus pneumoniae [15])
0.25 µg/mL: MIC (Streptococcus pneumoniae [2]) | MIC (Streptococcus pneumoniae [3])
0.03 µg/mL: MIC (Streptococcus pneumoniae [8]) | MIC (Streptococcus pneumoniae [14]) | MIC (Streptococcus pneumoniae [16])
0.12 µg/mL: MIC50 (Streptococcus pneumoniae [4])

COc1c(N2CCNC(C)C2)c(F)cc2c(=O)c(C(=O)O)cn(C3CC3)c12 (stereo not given) [GATIFLOXACIN]
4 µg/mL: MIC (Streptococcus pneumoniae [3]) | MIC (Streptococcus pneumoniae [21]) | MIC (Streptococcus pneumoniae [23]) | MIC (Streptococcus pneumoniae [24]) | MIC (Streptococcus pneumoniae [12]) | MIC (Streptococcus pneumoniae [13]) | MIC (Streptococcus pneumoniae [26])
8 µg/mL: MIC (Streptococcus pneumoniae [17]) | MIC (Streptococcus pneumoniae [2]) | MIC (Streptococcus pneumoniae [22]) | MIC (Streptococcus pneumoniae [25]) | MIC (Streptococcus pneumoniae [14]) | MIC (Streptococcus pneumoniae [27]) | MIC (Streptococcus pneumoniae [28]) | MIC50 (Streptococcus pneumoniae [15]) | MIC90 (Streptococcus pneumoniae [15]) | MIC (Streptococcus pneumoniae [29])
0.25 µg/mL: MIC (Streptococcus pneumoniae [7])
16 µg/mL: MIC (Streptococcus pneumoniae [18]) | MIC (Streptococcus pneumoniae [20]) | MIC (Streptococcus pneumoniae [9]) | MIC (Streptococcus pneumoniae [11])
1 µg/mL: MIC90 (Streptococcus pneumoniae [4])
0.5 µg/mL: MIC (Streptococcus pneumoniae [1]) | MIC50 (Streptococcus pneumoniae [4]) | MIC (Streptococcus pneumoniae [5]) | MIC (Streptococcus pneumoniae [19]) | MIC (Streptococcus pneumoniae [6]) | MIC (Streptococcus pneumoniae [8]) | MIC (Streptococcus pneumoniae [10]) | MIC (Streptococcus pneumoniae [16])

COc1c(N2CC3(CC3)[C@](C)(N)C2)c(F)cc2c(=O)c(C(=O)O)cn([C@@H]3C[C@@H]3F)c12.O
0.5 µg/mL: MIC (Streptococcus pneumoniae [21]) | MIC (Streptococcus pneumoniae [24]) | MIC (Streptococcus pneumoniae [12]) | MIC (Streptococcus pneumoniae [16])
0.12 µg/mL: MIC (Streptococcus pneumoniae [1]) | MIC50 (Streptococcus pneumoniae [4]) | MIC (Streptococcus pneumoniae [5]) | MIC (Streptococcus pneumoniae [7]) | MIC (Streptococcus pneumoniae [8])
0.25 µg/mL: MIC90 (Streptococcus pneumoniae [4])
0.125 µg/mL: MIC (Streptococcus pneumoniae [19]) | MIC (Streptococcus pneumoniae [6]) | MIC (Streptococcus pneumoniae [10])
1 µg/mL: MIC (Streptococcus pneumoniae [17]) | MIC (Streptococcus pneumoniae [2]) | MIC (Streptococcus pneumoniae [18]) | MIC (Streptococcus pneumoniae [3]) | MIC (Streptococcus pneumoniae [20]) | MIC (Streptococcus pneumoniae [22]) | MIC (Streptococcus pneumoniae [23]) | MIC (Streptococcus pneumoniae [11]) | MIC (Streptococcus pneumoniae [25]) | MIC (Streptococcus pneumoniae [13]) | MIC (Streptococcus pneumoniae [14]) | MIC (Streptococcus pneumoniae [26]) | MIC (Streptococcus pneumoniae [27]) | MIC (Streptococcus pneumoniae [28]) | MIC50 (Streptococcus pneumoniae [15]) | MIC90 (Streptococcus pneumoniae [15]) | MIC (Streptococcus pneumoniae [29])
4 µg/mL: MIC (Streptococcus pneumoniae [9])

CO/N=C1\CN(c2nc3c(cc2F)c(=O)c(C(=O)O)cn3C2CC2)CC1CN (stereo not given) [GEMIFLOXACIN]
0.5 µg/mL: MIC (Streptococcus pneumoniae [17]) | MIC (Streptococcus pneumoniae [18]) | MIC (Streptococcus pneumoniae [22]) | MIC (Streptococcus pneumoniae [23]) | MIC (Streptococcus pneumoniae [24]) | MIC (Streptococcus pneumoniae [25]) | MIC (Streptococcus pneumoniae [13]) | MIC (Streptococcus pneumoniae [28]) | MIC (Streptococcus pneumoniae [29])
0.03 µg/mL: MIC50 (Streptococcus pneumoniae [4]) | MIC (Streptococcus pneumoniae [19])
0.25 µg/mL: MIC (Streptococcus pneumoniae [21]) | MIC (Streptococcus pneumoniae [26]) | MIC50 (Streptococcus pneumoniae [15])
1 µg/mL: MIC (Streptococcus pneumoniae [20]) | MIC (Streptococcus pneumoniae [11]) | MIC (Streptococcus pneumoniae [12]) | MIC (Streptococcus pneumoniae [27]) | MIC90 (Streptococcus pneumoniae [15])
0.12 µg/mL: MIC90 (Streptococcus pneumoniae [4])
8 µg/mL: MIC (Streptococcus pneumoniae [2])
2 µg/mL: MIC (Streptococcus pneumoniae [9])
0.016 µg/mL: MIC (Streptococcus pneumoniae [7])
4 µg/mL: MIC (Streptococcus pneumoniae [3])
0.06 µg/mL: MIC (Streptococcus pneumoniae [1]) | MIC (Streptococcus pneumoniae [5]) | MIC (Streptococcus pneumoniae [8]) | MIC (Streptococcus pneumoniae [10])
0.125 µg/mL: MIC (Streptococcus pneumoniae [6])

COc1c(N2C[C@@H]3CCCN[C@@H]3C2)c(F)cc2c(=O)c(C(=O)O)cn(C3CC3)c12 [MOXIFLOXACIN]
0.25 µg/mL: MIC (Streptococcus pneumoniae [1]) | MIC (Streptococcus pneumoniae [19]) | MIC (Streptococcus pneumoniae [8])
0.125 µg/mL: MIC (Streptococcus pneumoniae [10])
2 µg/mL: MIC (Streptococcus pneumoniae [3]) | MIC (Streptococcus pneumoniae [21]) | MIC (Streptococcus pneumoniae [24]) | MIC (Streptococcus pneumoniae [12])
4 µg/mL: MIC (Streptococcus pneumoniae [17]) | MIC (Streptococcus pneumoniae [2]) | MIC (Streptococcus pneumoniae [18]) | MIC (Streptococcus pneumoniae [20]) | MIC (Streptococcus pneumoniae [22]) | MIC (Streptococcus pneumoniae [23]) | MIC (Streptococcus pneumoniae [11]) | MIC (Streptococcus pneumoniae [25]) | MIC (Streptococcus pneumoniae [13]) | MIC (Streptococcus pneumoniae [26]) | MIC (Streptococcus pneumoniae [27]) | MIC (Streptococcus pneumoniae [28]) | MIC50 (Streptococcus pneumoniae [15]) | MIC90 (Streptococcus pneumoniae [15]) | MIC (Streptococcus pneumoniae [29])
0.12 µg/mL: MIC (Streptococcus pneumoniae [5]) | MIC (Streptococcus pneumoniae [7])
16 µg/mL: MIC (Streptococcus pneumoniae [9])
8 µg/mL: MIC (Streptococcus pneumoniae [14])
